Patent US20240383875A1, “Benzimidazole Pyridine Derivatives” (Hoffmann-La Roche Inc., priority 2022, published 2024)

Key:
Format in all cases: biochemical
SIK1 = SIK1 (Homo sapiens, UniProt P57059); assay: Enzymatic activity assay SIK1, RapidFire mass spectrometry (phosphorylation of CHK-peptide); conditions: RapidFire MS, inhibition of SIK1; read-out: SIK1 RF IC50
Description: (§1) Assay description SIK1-3, RapidFire:
(§2) In the presence of SIK2 (resp. SIK1 or SIK3) and ATP the CHK-peptide ([…] with C-terminal arginine amide modification) were phosphorylated at one of the four feasible serine's. Only one phosphorylation is observed under the assay conditions. 60 nl of each compound dilution series (12 point; dilution factor 3, generally 30 μM to 170 pM) in DMSO were transferred by acoustic dispensing to the assay plate and 30 min pre-incubated (ambient temperature) after the addition of 5 μl SIK1 (5 nM) resp. 5 μl SIK2 (0.5 nM) or 7 μl SIK3 (1.5 nM) in assay-buffer (12.5 mM HEPES (pH 7.0), 10 mM magnesium acetate, 0.005% BSA). 10 μM CHK-peptide solution and 5 μl 100 μM ATP for SIK1 & SIK2 resp. 3 μl for SIK3 in assay-buffer were added and incubated ambient for 45 min. 40 μl 0.125% formic acid in water were added to quench the reaction. RapidFire (RF) Mass Spectrometry was utilized for data generation as described below. The multiple charged species (3-5 charges) for the phosphorylated and non-phosphorylated form measured by MRM (Multiple Reaction Monitoring; API5000 or 6500+) or EIC (Extracted Ion Current; QToF) were summed up and the ratio calculated (sum phosphorylated species/sum all species) for data evaluation. Normalization was performed by Genedata software based on the non-inhibition control DMSO and the commercially available SIK inhibitor @ 1 μM YKL-05-099 (CAS number 1936529-65-5). The results of the assay are expressed in half-maximal inhibitory concentrations (IC50s) and are summarized below in Table 1.
(§3) Samples were aspirated by vacuum for max. 600 ms and loaded to C4-cartridge (Agilent; #G9203A) for 3000 ms@1.5 ml/min with 0.1% formic acid in water. Afterwards samples were transferred to the APT5000 (APT6500+) or QToF mass spectrometer for 4000 ms@1.25 ml/min with 90% acetonitrile; 10% water; 0.007% TFA; 0.093 formic acid. The cartridge was reconditioned for additional 500 ms with 0.1% formic acid in water
(§4) All MS analyses using the following MS-setup in MRM mode: Electrospray positive; Ion Spray Voltage: 4000V; Temperature: 550° C.; Collision Gas: 5; Curtain Gas: 15; Gas1: 40; Gas 2: 42; EP: 10
(§5) MS-Setup Agilent QToF 6545
(§6) All MS analyses using the following MS-setup in Mode MS: Dual AJS Electrospray positive; VCap: 3000V; Drying & Sheath gas: 340° C.@81/min; Nebulizer: 60 psig; Nozzle Voltage: 2000V; Fragmentor: 130V; Skimmer: 35V; Oct1 RF Vpp: 700V; Ref masses on@5spectra/s

SIK2 = SIK2 (Homo sapiens, UniProt Q9H0K1); assay: Enzymatic activity assay SIK2, RapidFire mass spectrometry (phosphorylation of CHK-peptide); conditions: RapidFire MS, inhibition of SIK2; read-out: SIK2 RF IC50
Description: as §1
as §2, with “Only one phosphorylation is observed under the assay conditions. 60 nl of each compound dilution series (12 point; dilution factor 3, generally 30 μM to 170 pM) in DMSO were transferred by acoustic dispensing to the assay plate and 30 min pre-incubated (ambient temperature) after the addition of 5 μl SIK1 (5 nM) resp.” left out, “1936529-65-5).” for “1936529-65-5). The results of the assay are expressed in half-maximal inhibitory concentrations (IC50s) and are summarized below in Table 1.”
as §3, §4, §5, §6

SIK3 = SIK3 (Homo sapiens, UniProt Q9Y2K2); assay: Enzymatic activity assay SIK3, RapidFire mass spectrometry (phosphorylation of CHK-peptide); conditions: RapidFire MS, inhibition of SIK3; read-out: SIK3 RF IC50
Description: as §1, §2, §3, §4, §5, §6

SIK3, sequence (Q9Y2K2 whole entry): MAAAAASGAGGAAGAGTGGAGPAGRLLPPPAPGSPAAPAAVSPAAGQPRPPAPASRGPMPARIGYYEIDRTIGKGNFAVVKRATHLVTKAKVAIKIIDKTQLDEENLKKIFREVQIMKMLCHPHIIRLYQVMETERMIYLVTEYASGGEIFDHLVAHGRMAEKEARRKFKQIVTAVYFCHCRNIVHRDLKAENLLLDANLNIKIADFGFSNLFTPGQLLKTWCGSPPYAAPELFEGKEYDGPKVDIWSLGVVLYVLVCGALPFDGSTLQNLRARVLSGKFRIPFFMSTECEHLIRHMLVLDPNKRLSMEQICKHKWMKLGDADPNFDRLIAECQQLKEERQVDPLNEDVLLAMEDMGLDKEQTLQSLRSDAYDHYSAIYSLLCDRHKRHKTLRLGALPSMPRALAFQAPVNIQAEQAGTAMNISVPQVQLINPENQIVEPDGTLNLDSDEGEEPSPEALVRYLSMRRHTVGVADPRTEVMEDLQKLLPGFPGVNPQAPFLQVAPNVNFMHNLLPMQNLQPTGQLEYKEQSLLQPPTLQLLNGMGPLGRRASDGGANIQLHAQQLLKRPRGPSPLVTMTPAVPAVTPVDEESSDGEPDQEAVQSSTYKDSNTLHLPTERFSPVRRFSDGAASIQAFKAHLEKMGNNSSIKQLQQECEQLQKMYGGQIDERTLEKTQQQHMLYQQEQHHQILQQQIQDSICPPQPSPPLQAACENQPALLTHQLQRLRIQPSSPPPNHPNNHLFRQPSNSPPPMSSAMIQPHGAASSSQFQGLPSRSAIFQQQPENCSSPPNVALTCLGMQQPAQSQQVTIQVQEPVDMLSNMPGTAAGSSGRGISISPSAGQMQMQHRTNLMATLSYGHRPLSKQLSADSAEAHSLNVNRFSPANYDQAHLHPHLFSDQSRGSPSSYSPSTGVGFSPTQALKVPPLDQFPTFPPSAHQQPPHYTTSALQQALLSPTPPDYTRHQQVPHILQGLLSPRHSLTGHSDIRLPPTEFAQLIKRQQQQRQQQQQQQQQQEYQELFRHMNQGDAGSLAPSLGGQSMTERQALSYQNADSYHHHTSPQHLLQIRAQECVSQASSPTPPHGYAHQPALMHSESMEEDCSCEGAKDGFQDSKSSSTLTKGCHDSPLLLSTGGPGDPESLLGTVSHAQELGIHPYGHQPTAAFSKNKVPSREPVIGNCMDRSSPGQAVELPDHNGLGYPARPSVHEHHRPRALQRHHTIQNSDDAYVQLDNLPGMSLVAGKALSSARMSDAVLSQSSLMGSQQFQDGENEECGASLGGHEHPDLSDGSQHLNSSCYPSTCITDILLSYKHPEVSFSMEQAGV
SIK2, sequence (Q9H0K1 whole entry): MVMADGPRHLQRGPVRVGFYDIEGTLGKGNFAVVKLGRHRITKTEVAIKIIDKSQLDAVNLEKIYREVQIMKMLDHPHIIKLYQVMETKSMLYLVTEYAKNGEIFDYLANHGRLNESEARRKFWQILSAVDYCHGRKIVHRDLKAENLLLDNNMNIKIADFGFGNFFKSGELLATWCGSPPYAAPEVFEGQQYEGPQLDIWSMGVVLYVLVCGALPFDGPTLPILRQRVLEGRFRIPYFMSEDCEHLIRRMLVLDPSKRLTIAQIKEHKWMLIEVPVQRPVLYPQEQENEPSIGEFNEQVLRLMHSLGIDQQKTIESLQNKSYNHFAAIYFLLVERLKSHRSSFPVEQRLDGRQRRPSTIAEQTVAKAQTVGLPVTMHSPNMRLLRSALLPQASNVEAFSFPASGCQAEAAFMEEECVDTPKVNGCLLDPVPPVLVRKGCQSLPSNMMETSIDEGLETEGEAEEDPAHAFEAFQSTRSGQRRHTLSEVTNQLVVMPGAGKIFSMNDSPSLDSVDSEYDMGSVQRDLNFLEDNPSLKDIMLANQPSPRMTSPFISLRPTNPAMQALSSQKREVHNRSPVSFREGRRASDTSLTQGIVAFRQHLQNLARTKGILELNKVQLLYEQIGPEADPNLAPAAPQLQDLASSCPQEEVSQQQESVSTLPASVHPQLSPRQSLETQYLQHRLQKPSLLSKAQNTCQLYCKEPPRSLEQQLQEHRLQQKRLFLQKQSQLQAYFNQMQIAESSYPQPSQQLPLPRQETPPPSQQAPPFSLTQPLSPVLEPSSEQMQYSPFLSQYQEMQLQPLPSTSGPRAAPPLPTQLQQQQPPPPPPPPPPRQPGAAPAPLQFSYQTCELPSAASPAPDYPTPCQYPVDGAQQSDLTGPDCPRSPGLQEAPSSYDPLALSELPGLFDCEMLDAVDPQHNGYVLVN
SIK1, sequence (P57059 whole entry): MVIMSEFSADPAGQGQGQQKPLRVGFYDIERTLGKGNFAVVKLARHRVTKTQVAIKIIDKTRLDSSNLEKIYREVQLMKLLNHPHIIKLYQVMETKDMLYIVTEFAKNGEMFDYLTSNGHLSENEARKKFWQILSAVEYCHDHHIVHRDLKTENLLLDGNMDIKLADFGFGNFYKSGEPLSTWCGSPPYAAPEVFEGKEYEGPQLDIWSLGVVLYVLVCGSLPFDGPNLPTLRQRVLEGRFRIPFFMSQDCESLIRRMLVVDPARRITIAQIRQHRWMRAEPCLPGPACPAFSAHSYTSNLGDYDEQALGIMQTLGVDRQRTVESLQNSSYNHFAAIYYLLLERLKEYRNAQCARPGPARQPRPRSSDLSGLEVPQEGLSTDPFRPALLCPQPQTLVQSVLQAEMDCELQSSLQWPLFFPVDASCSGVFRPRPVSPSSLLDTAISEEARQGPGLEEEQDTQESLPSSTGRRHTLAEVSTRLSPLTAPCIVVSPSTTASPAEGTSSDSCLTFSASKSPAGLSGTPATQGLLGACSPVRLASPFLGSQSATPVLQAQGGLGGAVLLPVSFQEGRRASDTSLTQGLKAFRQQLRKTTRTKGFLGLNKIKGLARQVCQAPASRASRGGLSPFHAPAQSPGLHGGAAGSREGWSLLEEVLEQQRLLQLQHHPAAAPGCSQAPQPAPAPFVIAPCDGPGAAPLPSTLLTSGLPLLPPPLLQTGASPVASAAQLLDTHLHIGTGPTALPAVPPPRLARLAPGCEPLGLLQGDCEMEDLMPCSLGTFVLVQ

| Molecule | IC50 (SIK1) [nM] | IC50 (SIK2) [nM] | IC50 (SIK3) [nM] |
| --- | --- | --- | --- |
| 1-[6-[5-[[5-(azetidin-1-yl)pyridazin-3-yl]amino]-6-fluoro-benzimidazol-1-yl]-2-[3-(difluoromethyl)-5-methyl-pyrazol-1-yl]-3-pyridyl]ethanol [Example 390] | 5890 | 27.2 | 16 |
| COc1cc2ncn(-c3ccc(CO)c(-c4ccc(F)cc4OC)n3)c2cc1OC [Example 16, (6-(5,6-Dimethoxy-1H-benzo[d]imidazol-1-yl)-2-(4-fluoro-2-methoxyphenyl)pyridin-3-yl)methanol] | 692 | 313 | 2180 |
| COc1cc2ncn(-c3ccc(C(C)O)c(-c4ccc(F)cc4OC)n3)c2cc1OC (centres unmarked) [Example 17, 1-(6-(5,6-Dimethoxy-1H-benzo[d]imidazol-1-yl)-2-(4-fluoro-2-methoxyphenyl)pyridin-3-yl)ethan-1-ol] | 327 | 155 | 1140 |
| CCC(O)c1ccc(-n2cnc3cc(OC)c(OC)cc32)nc1-c1ccc(F)cc1OC (centres unmarked) [Example 18, 1-(6-(5,6-Dimethoxy-1H-benzo[d]imidazol-1-yl)-2-(4-fluoro-2-methoxyphenyl)pyridin-3-yl)propan-1-ol] | 1000 | 988 | 2880 |
| COc1cc2ncn(-c3ccc([C@H](C)O)c(-c4ccc(F)cc4OC)n3)c2cc1OC [Example 21, (S)-1-(6-(5,6-Dimethoxy-1H-benzo[d]imidazol-1-yl)-2-(4-fluoro-2-methoxyphenyl)pyridin-3-yl)ethan-1-ol] | 192 | 135 | 543 |
| COc1cc2ncn(-c3ccc([C@@H](C)O)c(-c4ccc(F)cc4OC)n3)c2cc1OC [Example 22, (R)-1-(6-(5,6-Dimethoxy-1H-benzo[d]imidazol-1-yl)-2-(4-fluoro-2-methoxyphenyl)pyridin-3-yl)ethan-1-ol] | 970 | 849 | 4480 |
| COc1cc2ncn(-c3ccc(C(O)C4CC4)c(-c4ccc(F)cc4OC)n3)c2cc1OC (centres unmarked) [Example 23, Cyclopropyl(6-(5,6-dimethoxy-1H-benzo[d]imidazol-1-yl)-2-(4-fluoro-2-methoxyphenyl)pyridin-3-yl)methanol] | 3640 | 3880 | 9010 |
| CCC(O)c1ccc(-n2cnc3cc(OC)c(OC)cc32)nc1-c1cccc(Cl)c1 (centres unmarked) [Example 24, 1-(2-(3-Chlorophenyl)-6-(5,6-dimethoxy-1H-benzo[d]imidazol-1-yl)pyridin-3-yl)propan-1-ol] | 353 | 192 | 727 |
| COc1cc2ncn(-c3ccc(C(O)C4CC4)c(-c4cccc(Cl)c4)n3)c2cc1OC (centres unmarked) [Example 25, (2-(3-Chlorophenyl)-6-(5,6-dimethoxy-1H-benzo[d]imidazol-1-yl)pyridin-3-yl)(cyclopropyl)methanol] | 777 | 605 | 987 |
| COc1cc2ncn(-c3ccc(CO)c(N4CCOCC4)n3)c2cc1OC [Example 26, (6-(5,6-Dimethoxy-1H-benzo[d]imidazol-1-yl)-2-morpholinopyridin-3-yl)methanol] | 806 | 699 | 1440 |
| COc1cc2ncn(-c3ccc(CO)c(N4CCCC4)n3)c2cc1OC [Example 27, (6-(5,6-Dimethoxy-1H-benzo[d]imidazol-1-yl)-2-(pyrrolidin-1-yl)pyridin-3-yl)methanol] | 535 | 473 | 761 |
| Cc1ccc(Nc2ccc3c(c2)ncn3-c2ccc(C(C)O)c(-c3cccnc3-c3cn[nH]c3)n2)nn1 (centres unmarked) [Example 186, 1-[6-[5-[(6-Methylpyridazin-3-yl)amino]benzimidazol-1-yl]-2-[2-(1H-pyrazol-4-yl)-3-pyridyl]-3-pyridyl]ethanol] |  | 1240 | 1060 |

Further molecules by falling IC50 (SIK3), results first:

| IC50 (SIK1) [nM] | IC50 (SIK2) [nM] | IC50 (SIK3) [nM] | Molecule |
| --- | --- | --- | --- |
| 152 | 105 | 358 | COc1cc2ncn(-c3ccc(CO)c(-c4cccc(Cl)c4)n3)c2cc1OC [Example 1, (2-(3-chlorophenyl)-6-(5,6-dimethoxy-1H-benzo[d]imidazol-1-yl)pyridin-3-yl)methanol] |
| 87 | 70 | 213 | Cc1cc(C#N)nn1-c1nc(-n2cnc3cc(F)c(N[C@@H]4CNC[C@@H]4F)cc32)ccc1C(C)O (stereo in doubt) [Example 188, 1-[6-[5-fluoro-6-[[(3R,4S)-4-fluoropyrrolidin-3-yl]amino]benzimidazol-1-yl]-3-(1-hydroxyethyl)pyridin-2-yl]-5-methylpyrazole-3-carbonitrile] |
| 68 | 26.5 | 116 | COc1cc2ncn(-c3ccc(C(C)O)c(-c4cccc(Cl)c4)n3)c2cc1OC (centres unmarked) [Example 19, 1-(2-(3-Chlorophenyl)-6-(5,6-dimethoxy-1H-benzo[d]imidazol-1-yl)pyridin-3-yl)ethan-1-ol] |
| 18 | 12.8 | 55.4 | COc1cc2ncn(-c3ccc(CO)c(-c4cccc(Cl)c4F)n3)c2cc1OC [Example 15, (2-(3-Chloro-2-fluorophenyl)-6-(5,6-dimethoxy-1H-benzo[d]imidazol-1-yl)pyridin-3-yl)methanol] |
| 12 | 5 | 19.8 | COc1cc2ncn(-c3ccc(C(C)O)c(-c4cccc(Cl)c4F)n3)c2cc1OC (centres unmarked) [Example 20, 1-(2-(3-Chloro-2-fluorophenyl)-6-(5,6-dimethoxy-1H-benzo[d]imidazol-1-yl)pyridin-3-yl)ethan-1-ol] |
| 1800 |  | 18.6 | Cc1ccc(Nc2ccc3c(c2)ncn3-c2ccc([C@H](C)O)c(-n3nc(C#N)cc3C)n2)nn1 [Example 109, 5-Methyl-1-[6-[5-[(6-methylpyridazin-3-yl)amino]benzimidazol-1-yl]-3-[(1S)-1-hydroxyethyl]-2-pyridyl]pyrazole-3-carbonitrile] |
| 457 | 13.7 | 15.5 | Cc1ccc(Nc2ccc3c(c2)ncn3-c2ccc(C(C)O)c(N3CC[C@H]4NCC[C@@H]43)n2)nn1 (mixture of isomers) [Example 127, 1-[6-[5-[(6-Methylpyridazin-3-yl)amino]benzimidazol-1-yl]-2-[rac-trans-2,3,3a,5,6,6a-hexahydro-1H-pyrrolo[3,2-b]pyrrol-4-yl]-3-pyridyl]ethanol] |
| 42 | 7.9 | 5.1 | 1-[6-[6-fluoro-5-[(5-fluoro-6-methyl-3-pyridyl)amino] benzimidazol-1-yl]-3-(1-hydroxyethyl)-2-pyridyl]-5-methyl-pyrazole-3-carbonitrile [Example 389] |
| 59 |  | 0.6 | Cc1ccc(Nc2ccc3c(c2)ncn3-c2ccc(C(C)O)c(-n3nc(C#N)cc3C)n2)nn1 (centres unmarked) [Example 64, 1-[3-(1-Hydroxyethyl)-6-[5-[(6-methylpyridazin-3-yl)amino]benzimidazol-1-yl]-2-pyridyl]-5-methyl-pyrazole-3-carbonitrile] |
| 26 |  | 0.2 | Cc1ccc(Nc2ccc3c(c2)ncn3-c2ccc([C@@H](C)O)c(-n3nc(C#N)cc3C)n2)nn1 [Example 110, 5-Methyl-1-[6-[5-[(6-methylpyridazin-3-yl)amino]benzimidazol-1-yl]-3-[(1R)-1-hydroxyethyl]-2-pyridyl]pyrazole-3-carbonitrile] |
